Results on two molecules are retold here after PMC6237192 (European journal of medicinal chemistry, 2018).

Structures are written as SMILES.

The test system of one assay is HIV-1NL4-3 (subtype B). In words: Antiviral activity in MT-4 human T-lymphoid cells exposed to HIV-1NL4-3. In kind it is cell-based. The following applies: Human immunodeficiency virus 1, MT4, in Homo sapiens.
In a further assay the test system is MT4 cells. In words: Cytotoxicity. It is filed as cell-based, human. The following applies: ratio of CC50 to IC50.

Usually IC50 stands for the concentration at which inhibition is half-maximal. High values mean weaker potency in that assay, low ones greater potency in that assay. For `CC(C)CN(C[C@@H](O)[C@H](Cc1ccccc1)NC(=O)O[C@H]1CCOC1)S(=O)(=O)c1ccc(N)cc1` [amprenavir], in the assay with HIV-1NL4-3 (subtype B), the half-maximal inhibitory concentration (IC50) came to 0.03 µM.
`COc1ccc(S(=O)(=O)N(CC(C)C)C[C@@H](O)[C@H](Cc2ccccc2)NC(=O)c2ccc3c(c2)[C@@H](NC(=O)OC(C)(C)C)CCS3(=O)=O)cc1` [Inhibitor 4e, tert-Butyl ((S)-6-(((2S,3R)-3-hydroxy-4-((N-isobutyl-4-methoxyphenyl)sulfonamido)-1-phenylbutan-2-yl)carbamoyl)-1,1-dioxidothiochroman-4-yl)carbamate]: the “Selectivity Index” value in the assay on MT4 cells is greater than 2128.
